Data taken from patent US4316022A, “Benzo-as-triazine derivatives” (priority 1979, dated 1982).
Like-named read-outs stand apart in the source and are kept apart here.

Legend:
in vivo = details: mouse, po
Description: The toxicity of the new compounds according to the invention was determined on mice after oral administration. The chemical names of the reference compounds are as follows: […]

[1] = tested on: carrageenin-provoked paw oedema; assay: antiphlogistic (oedema-inhibiting) effect, carrageenin paw oedema on rats; format: in vivo; details: for ED30: Rattus norvegicus, read-out: ED30 (antiphlogistic effect); for Therapeutical index (antiphlogistic effect): carrageenin paw oedema
Description: The antiphlogistic (oedema-inhibiting) effect was tested on rats. 0.1 ml of a 1% carrageenin solution were injected into the plantar region of one of the hind paws. The volume of the paw was measured just before and 3 hours after the introduction of the oedema-provoking agent by a mercury plethysmometer.

narcosis = narcosis potentiating effect on mice, method of Kaergaard; format: in vivo; details: for ED50: Mus musculus, read-out: ED50 (narcosis potentiating effect)
Description: The narcosis potentiating effect was determined on mice by the method of Kaergaard (Arch. Int. Pharmacodyn. 2, 170/1967/).

acetic acid writhing = assay: analgesic effect, acetic acid writhing test on mice; format: in vivo; details: for ED50: Mus musculus, read-out: ED50 (analgesic effect); for Therapeutical index (analgesic effect): writhing test
Description: The analgesic effect of the new compounds according to the invention was determined on mice by the acetic acid writhing test.

[2] = rats, dosage inhibiting inflammation by 30%, 3 hours after carrageenin
[3] = mice, oral, acetic acid given 1 h after treatment, writhings counted within 5 minutes

For `CC(=O)Oc1ccccc1C(=O)O` [Acetylsalicylic acid, reference compound], the LD50 (in vivo) was 1500 mg/kg, the ED30 ([1]; 3 h) was 180 mg/kg and the “Therapeutical index (antiphlogistic effect)” value ([1]; rats) was 8.33.

For `CC(=O)N1c2ccccc2-n2cnnc2N1C(C)=O` [Example 1, 4,5-diacetyl-4,5-dihydro-s-triazolo-[3,4-c]benzo-as-triazine], the LD50 (in vivo) was 1100 mg/kg, the ED50 (narcosis; mice, method of Kaergaard) was 75 mg/kg and the “Therapeutical index (narcosis potentiating effect)” value (narcosis; mice, method of Kaergaard) was 15. For the same compound, the ED30 [1, 2] was 110 mg/kg and the “Therapeutical index (antiphlogistic effect)” value ([1]; rats) was 10.

With `CCC(=O)N1c2ccccc2-n2cnnc2N1C(=O)CC` [Example 3, 4,5-dipropionyl-4,5-dihydro-s-triazolo[3,4-c]benzo-as-triazine] the LD50 (in vivo) was 2000 mg/kg, the ED50 (acetic acid writhing; [3]) was 200 mg/kg and the “Therapeutical index (analgesic effect)” value (acetic acid writhing; mice, oral) was 10. For the same compound, the ED50 (narcosis; mice, method of Kaergaard) was 80 mg/kg and the “Therapeutical index (narcosis potentiating effect)” value (narcosis; mice, method of Kaergaard) was 25.

In the case of `CCC(=O)N1Nc2nncn2-c2ccccc21` [Example 4, 5-propionyl-4,5-dihydro-s-triazolo[3,4-c]benzo-as-triazine], the LD50 (in vivo) is reported as 1750 mg/kg, the ED50 (acetic acid writhing; [3]) is reported as 175 mg/kg and the “Therapeutical index (analgesic effect)” value (acetic acid writhing; mice, oral) is reported as 10. The ED50 (narcosis; mice, method of Kaergaard) was 140 mg/kg, the “Therapeutical index (narcosis potentiating effect)” value (narcosis; mice, method of Kaergaard) was 13 and the ED30 [1, 2] was 22 mg/kg. The “Therapeutical index (antiphlogistic effect)” value ([1]; rats) was 79.55.

For `CCC(=O)N1c2ccccc2-n2c(SC)nnc2N1C(=O)CC` [Example 5, 1-methylthio-4,5-dipropionyl-4,5-dihydro-s-triazolo[3,4-c]benzo-as-triazin], the LD50 (in vivo) was 1000 mg/kg, the ED50 (acetic acid writhing; [3]) was 100 mg/kg and the “Therapeutical index (analgesic effect)” value (acetic acid writhing; mice, oral) was 10. For the same compound, the ED50 (narcosis; mice, method of Kaergaard) was 140 mg/kg and the “Therapeutical index (narcosis potentiating effect)” value (narcosis; mice, method of Kaergaard) was 7.

`CCCc1c(O)n2c3nncn3c3ccccc3n2c1=O` [Example 11, 1-oxo-3-hydroxy-2-n-propyl-pyrazolo[1,2-a]-s-triazolo-[3,4-c]benzo-as-triazine] showed an LD50 (in vivo) of 2000 mg/kg.

For `CCCC(C)(COC(N)=O)COC(N)=O` [Meprobamate, 2-methyl-2-propyl-1,3-propanediol dicarbamate, reference compound], the LD50 (in vivo) was 1100 mg/kg, the ED50 (narcosis) was 260 mg/kg and the “Therapeutical index (narcosis potentiating effect)” value (narcosis; mice, method of Kaergaard) was 4.2.

In the case of `CC(=O)Nc1ccc(O)cc1` [Paracetamol, N-(hydroxyphenyl)acetamide, reference compound], the ED50 (acetic acid writhing; po) is reported as 180 mg/kg.

Work on `CCCCC1C(=O)N(c2ccccc2)N(c2ccccc2)C1=O` [Phenylbutazone, 4-butyl-1,2-diphenyl-3,5-pyrazolidinedione, reference compound] yielded an ED30 [1, 2] of 90 mg/kg.
